Data on one molecule can be found in PMC10401570, “Programmable Monodisperse Glyco-Multivalency Using Self-Assembled Coordination Cages as Scaffolds” (ACS Applied Materials & Interfaces, 2023).

Molecules are shown by their SMILES.

For the test, the target named is Jacalin (Artocarpus integer, UniProt P18670). Kind of test: competition turbidimetry: free galactose blocks lectin aggregation by galactose cage Co4Gal ([…] against Co8Gal). Type of test: binding.
Sequence of Jacalin (P18670 whole entry): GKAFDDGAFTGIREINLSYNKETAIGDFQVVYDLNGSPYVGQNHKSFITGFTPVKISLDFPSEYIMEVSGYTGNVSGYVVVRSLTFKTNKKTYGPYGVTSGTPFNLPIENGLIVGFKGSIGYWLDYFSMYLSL
Sequence of Jacalin (P18671 whole entry partner): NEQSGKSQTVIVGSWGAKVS

A word on the IC50: it is the concentration needed to halve the response being measured. Consider `OC[C@H]1OC(O)[C@H](O)[C@@H](O)[C@H]1O` (stereo partly drawn) [D-galactose], for which the concentration for half-maximal inhibition (IC50) was 30 mM.
